Columns and labels:
[1] = Mean residence time in beagle dog at 0.2 mg/kg, iv; format: ADME, organism-based, Canis lupus familiaris; design: dose 0.2 mg/kg, route intravenous; settings: in vivo
[2] = Mean residence time in Sprague-Dawley rat at 1 mg/kg, iv; format: ADME, organism-based; design: dose 1 mg/kg, route intravenous; settings: in vivo
Hepatitis C virus [3] = experiment: Antiviral activity against HCV genotype 1b Con1 infected in human HuH7 cells assessed as inhibition of viral RNA replication after 3 days by renilla luciferase reporter gene assay; format: functional, organism-based, Hepacivirus hominis; settings: isolate Con1, Huh-7, 72 h
[4] = Clearance in Sprague-Dawley rat at 1 mg/kg, iv; format: ADME, organism-based; design: dose 1 mg/kg, route intravenous; settings: in vivo
[5] = Oral bioavailability in Sprague-Dawley rat at 2 mg/kg; format: ADME, organism-based; settings: in vivo
Hepatitis C virus [6] = experiment: Antiviral activity against HCV genotype 1a H77 infected in human HuH7 cells assessed as inhibition of viral RNA replication after 3 days by renilla luciferase reporter gene assay; format: functional, organism-based, Hepacivirus hominis; settings: genotype 1a H77, Huh-7, 72 h
[7] = Volume of distribution at steady state in beagle dog at 0.2 mg/kg, iv; format: ADME, organism-based, Canis lupus familiaris; design: dose 0.2 mg/kg, route intravenous; settings: in vivo, read-out: Vdss
[8] = Clearance in beagle dog at 0.2 mg/kg, iv; format: ADME, organism-based, Canis lupus familiaris; design: dose 0.2 mg/kg, route intravenous; settings: in vivo
[9] = Half life in beagle dog at 0.2 mg/kg, iv; format: ADME, organism-based, Canis lupus familiaris; design: dose 0.2 mg/kg, route intravenous; settings: in vivo
[10] = Volume of distribution at steady state in Sprague-Dawley rat at 1 mg/kg, iv; format: ADME, organism-based; design: dose 1 mg/kg, route intravenous; settings: in vivo, read-out: Vdss
[11] = Half life in Sprague-Dawley rat at 1 mg/kg, iv; format: ADME, organism-based; design: dose 1 mg/kg, route intravenous; settings: in vivo
Hepatitis C virus [12] = experiment: Ratio of EC50 for HCV genotype 1a H77 infected in human HuH7 cells in presence of human serum to EC50 for HCV genotype 1a H77 infected in human HuH7 cells; format: functional, Hepacivirus hominis, Huh-7
Hepatitis C virus [13] = experiment: Antiviral activity against HCV genotype 1a H77 infected in human HuH7 cells assessed as inhibition of viral RNA replication after 3 days by renilla luciferase reporter gene assay in presence of 10% BSA; format: functional, organism-based, Hepacivirus hominis; settings: genotype 1a H77, Huh-7, 72 h
Hepatitis C virus [14] = experiment: Ratio of EC50 for HCV genotype 1a H77 infected in human HuH7 cells in presence of 10% BSA to EC50 for HCV genotype 1a H77 infected in human HuH7 cells; format: functional, Hepacivirus hominis, Huh-7
Hepatitis C virus [15] = experiment: Antiviral activity against HCV genotype 1a H77 infected in human HuH7 cells assessed as inhibition of viral RNA replication after 3 days by renilla luciferase reporter gene assay in presence of human serum; format: functional, organism-based, Hepacivirus hominis; settings: genotype 1a H77, Huh-7, 72 h
[16] = Ratio of EC50 for HCV genotype 1a to EC50 for HCV genotype 1b; format: functional

SMILES	EC50 (Hepatitis C virus [3]) [nM]	EC50 (Hepatitis C virus [6]) [nM]	also measured
COC(=O)N[C@H](C(=O)N1CCC[C@H]1c1ncc(-c2ccc3c(c2)C(F)(F)c2cc(-c4ccc5nc([C@@H]6CCCN6C(=O)[C@@H](NC(=O)OC)C(C)C)[nH]c5c4)ccc2-3)[nH]1)C(C)C	0.003	0.04	MRT [1]: 3.69 h; MRT [2]: 2.21 h; clearance [4]: 7 mL/min/kg; bioavailability [5]: 36.7%; Vd [7]: 1.96 L/kg; clearance [8]: 8.83 mL/min/kg; half-life [9]: 2.63 h; Vd [10]: 0.93 L/kg; half-life [11]: 1.83 h
COC(=O)N[C@H](C(=O)N1CCC[C@H]1c1ncc(-c2ccc3c(c2)C(F)(F)c2cc(-c4ccc5nc([C@@H]6[C@H]7CC[C@H](C7)N6C(=O)[C@@H](NC(=O)OC)C(C)C)[nH]c5c4)ccc2-3)[nH]1)C(C)C	0.004	0.056	Ratio EC50 (Hepatitis C virus [12]): 14; EC50 (Hepatitis C virus [13]): 0.784 nM; Ratio EC50 (Hepatitis C virus [14]): 14; EC50 (Hepatitis C virus [15]): 0.784 nM
O=C(Nc1ccncc1)c1ccc(-c2csc(NC(=O)[C@@H]3CCCN3C(=O)OCc3ccccc3)n2)cc1	80	–	Ratio EC50 [16]: 1000
COC(=O)N[C@H](C(=O)N1CCC[C@H]1c1nc2ccc(C#CC#Cc3ccc4nc([C@@H]5CCCN5C(=O)[C@@H](NC(=O)OC)C(C)C)[nH]c4c3)cc2[nH]1)C(C)C	0.026	11	–
COC(=O)N[C@H](C(=O)N1CCC[C@H]1c1ncc(C#Cc2ccc(-c3ccc4nc([C@@H]5CCCN5C(=O)[C@@H](NC(=O)OC)C(C)C)[nH]c4c3)cc2)[nH]1)C(C)C	0.016	2.5	–
CN(C)[C@@H](C(=O)N1CCC[C@H]1C(=O)Nc1ccc(/C=C/c2ccc(NC(=O)[C@@H]3CCCN3C(=O)[C@@H](c3ccccc3)N(C)C)cc2)cc1)c1ccccc1	0.1	–	–
COC(=O)N[C@H](C(=O)N1CCC[C@H]1c1nc(-c2ccc3cc(-c4ccc5[nH]c([C@@H]6CCCN6C(=O)[C@@H](NC(=O)OC)C(C)C)nc5c4)ccc3c2)c[nH]1)C(C)C	0.007	0.071	–
COC(=O)N[C@H](C(=O)N1CCC[C@H]1c1nc2ccc(-c3ccc(-c4ccc5nc([C@@H]6CCCN6C(=O)[C@@H](NC(=O)OC)C(C)C)[nH]c5c4)cc3)cc2[nH]1)C(C)C	0.009	0.5	–
COC(=O)N[C@H](C(=O)N1CCC[C@H]1c1nc2ccc(-c3cc4cc5sc(-c6ccc7nc([C@@H]8CCCN8C(=O)[C@@H](NC(=O)OC)C(C)C)[nH]c7c6)cc5cc4s3)cc2[nH]1)C(C)C	0.016	0.2	–
COC(=O)N[C@H](C(=O)N1CCC[C@H]1c1nc2ccc(-c3ccc(-c4ccc(-c5cnc([C@@H]6[C@H]7CC[C@H](C7)N6C(=O)[C@@H](NC(=O)OC)C(C)C)[nH]5)cc4)cc3)cc2[nH]1)C(C)C	0.021	0.66	–
COC(=O)N[C@H](C(=O)N1CCC[C@H]1c1ncc(-c2ccc3c(c2)Cc2cc(-c4cnc([C@@H]5CCCN5C(=O)[C@@H](NC(=O)OC)C(C)C)[nH]4)ccc2-3)[nH]1)C(C)C	0.013	0.094	–
COC(=O)N[C@H](C(=O)N1CCC[C@H]1c1ncc(-c2ccc3c(c2)C(=O)c2cc(-c4cnc([C@@H]5CCCN5C(=O)[C@@H](NC(=O)OC)C(C)C)[nH]4)ccc2-3)[nH]1)C(C)C	0.018	0.3	–
COC(=O)N[C@H](C(=O)N1CCC[C@H]1c1nc2ccc(-c3ccc(-c4ccc5nc([C@@H]6CCCN6C(=O)[C@@H](NC(=O)OC)C(C)C)[nH]c5c4)s3)cc2[nH]1)C(C)C	0.01	1.7	–
COC(=O)N[C@H](C(=O)N1CCC[C@H]1c1ncc(-c2ccc(-c3ccc(-c4cnc([C@@H]5[C@H]6CC[C@H](C6)N5C(=O)[C@@H](NC(=O)OC)C(C)C)[nH]4)cc3)cc2)[nH]1)C(C)C	0.009	0.21	MRT [1]: 6.6 h; MRT [2]: 1.4 h; clearance [4]: 11.7 mL/min/kg; bioavailability [5]: 35.2%; Vd [7]: 0.31 L/kg; clearance [8]: 0.833 mL/min/kg; half-life [9]: 5.29 h; Vd [10]: 0.98 L/kg; half-life [11]: 1.49 h
COC(=O)N[C@H](C(=O)N1CCC[C@H]1c1nc2ccc(-c3ccc4nc([C@@H]5CCCN5C(=O)[C@@H](NC(=O)OC)C(C)C)[nH]c4c3)cc2[nH]1)C(C)C	35	> 44	–
COC(=O)N[C@H](C(=O)N1CCC[C@H]1c1nc2ccc(C#Cc3ccc4nc([C@@H]5CCCN5C(=O)[C@@H](NC(=O)OC)C(C)C)[nH]c4c3)cc2[nH]1)C(C)C	0.14	> 44	–
COC(=O)N[C@H](C(=O)N1CCC[C@H]1c1nc2ccc(-c3ccc(-c4ccc(-c5ccc6nc([C@@H]7CCCN7C(=O)[C@@H](NC(=O)OC)C(C)C)[nH]c6c5)cc4)cc3)cc2[nH]1)C(C)C	0.044	3.7	–
COC(=O)N[C@H](C(=O)N1CCC[C@H]1c1ncc(-c2ccc(-c3ccc(-c4ccc5nc([C@@H]6CCCN6C(=O)[C@@H](NC(=O)OC)C(C)C)[nH]c5c4)s3)cc2)[nH]1)C(C)C	0.003	0.2	–
COC(=O)N[C@H](C(=O)N1CCC[C@H]1c1ncc(-c2ccc(C#Cc3ccc4nc([C@@H]5CCCN5C(=O)[C@@H](NC(=O)OC)C(C)C)[nH]c4c3)cc2)[nH]1)C(C)C	0.011	0.38	–
COC(=O)N[C@H](C(=O)N1CCCC[C@H]1c1ncc(-c2ccc(-c3ccc(-c4cnc([C@@H]5CCCN5C(=O)[C@@H](NC(=O)OC)C(C)C)[nH]4)cc3)cc2)[nH]1)C(C)C	0.005	0.45	–
COC(=O)N[C@H](C(=O)N1CCC[C@H]1c1ncc(-c2ccc(-c3ccc(-c4ccc5nc([C@@H]6[C@H]7CC[C@H](C7)N6C(=O)[C@@H](NC(=O)OC)C(C)C)[nH]c5c4)cc3)cc2)[nH]1)C(C)C	0.006	0.16	MRT [1]: 5.47 h; MRT [2]: 2.42 h; clearance [4]: 12.5 mL/min/kg; bioavailability [5]: 26.3%; Vd [7]: 2.03 L/kg; clearance [8]: 6.67 mL/min/kg; half-life [9]: 4.01 h; Vd [10]: 1.81 L/kg; half-life [11]: 2.07 h
COC(=O)N[C@H](C(=O)N1CCC[C@H]1c1ncc(-c2ccc3c(c2)C(C)(C)c2cc(-c4cnc([C@@H]5CCCN5C(=O)[C@@H](NC(=O)OC)C(C)C)[nH]4)ccc2-3)[nH]1)C(C)C	0.014	1.2	–
C[C@H](NC(=O)c1ccc(Sc2ccc(N)cc2)c(Nc2ncnc3nc(C(C)(C)C)ccc23)c1)c1ccccc1	3	46	–
COC(=O)N[C@H](C(=O)N1CCC[C@H]1c1ncc(-c2ccc(-c3ccc4nc([C@@H]5CCCN5C(=O)[C@@H](NC(=O)OC)C(C)C)[nH]c4c3)cc2)[nH]1)C(C)C	0.3	> 44	–
COC(=O)N[C@H](C(=O)N1CCC[C@H]1c1ncc(-c2ccc(-c3ccc(-c4ccc5nc([C@@H]6CCCN6C(=O)[C@@H](NC(=O)OC)C(C)C)[nH]c5c4)cc3)cc2)[nH]1)C(C)C	0.007	0.17	MRT [1]: 3 h; MRT [2]: 1.71 h; clearance [4]: 17.3 mL/min/kg; bioavailability [5]: 11.5%; Vd [7]: 2.31 L/kg; clearance [8]: 13 mL/min/kg; half-life [9]: 2.3 h; Vd [10]: 1.76 L/kg; half-life [11]: 1.57 h
Cc1ccc(O)c(-c2nn(C)cc2C#Cc2ccc(NC(=O)[C@@H]3COCCN3C(=O)[C@H](NC(=O)OC(C)(C)C)c3ccccc3)cc2)c1	< 1000	–	Ratio EC50 [16]: 1000
COC(=O)N[C@H](C(=O)N1CCC[C@H]1c1nc2ccc(-c3ccc4cc(-c5ccc6nc([C@@H]7CCCN7C(=O)[C@@H](NC(=O)OC)C(C)C)[nH]c6c5)ccc4c3)cc2[nH]1)C(C)C	0.004	0.11	–
C[C@H](NC(=O)OCc1ccccc1)C(=O)Nc1cccc(C2S/C(=N\c3cccc(F)c3)N(Cc3ccco3)C2=O)c1 (stereo not given in full)	580	–	Ratio EC50 [16]: 1000

— ChEMBL document CHEMBL3120075 (J Med Chem, 2014)
